Experimental data from the supplement of paper PMC10307832.

What was measured:
Test in all cases: relative viability (nuclei count vs DMSO), 5 days (fraction); higher = more cells survive
[1] = compound: C1=CC=C2C(=C1)N=C(S2)C(C#N)C3=NC(=NC=C3)NCCC4=CN=CC=C4 + CS(=O)(=O)CCNCc1ccc(-c2ccc3ncnc(Nc4ccc(OCc5cccc(F)c5)c(Cl)c4)c3c2)o1 [Lapatinib] (partner 2 µM)
Summary of the method: (§1)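 Lung cancer cell lines in 1536-well plates got either a single drug or a fixed anchor-drug dose together with five library-drug doses (not always all listed) in √10 steps, by pin tool, on the day after seeding. Nuclei were counted after 5 days, and relative viability is the treated-to-vehicle ratio of nuclei counts. Values are medians of duplicate plates.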

CUDC-101 + Foretinib = compound: C#Cc1cccc(Nc2ncnc3cc(OC)c(OCCCCCCC(=O)NO)cc23)c1 [CUDC-101] + COc1cc2c(Oc3ccc(NC(=O)C4(C(=O)Nc5ccc(F)cc5)CC4)cc3F)ccnc2cc1OCCCN1CCOCC1 [Foretinib] (partner 0.25 µM)
Summary of the method: as §1

CUDC-101 + Alpelisib = compound: C#Cc1cccc(Nc2ncnc3cc(OC)c(OCCCCCCC(=O)NO)cc23)c1 [CUDC-101] + Cc1nc(NC(=O)N2CCC[C@H]2C(N)=O)sc1-c1ccnc(C(C)(C)C(F)(F)F)c1 [Alpelisib] (partner 2 µM)
Summary of the method: as §1

NVP-TAE684 + Lapatinib = compound: COc1cc(N2CCC(N3CCN(C)CC3)CC2)ccc1Nc1ncc(Cl)c(Nc2ccccc2S(=O)(=O)C(C)C)n1 [NVP-TAE684] + CS(=O)(=O)CCNCc1ccc(-c2ccc3ncnc(Nc4ccc(OCc5cccc(F)c5)c(Cl)c4)c3c2)o1 [Lapatinib] (partner 2 µM)
Summary of the method: as §1

Cell Line | relative viability ([1]; first compound 0.005 µM) | relative viability ([1]; first compound 0.01581 µM) | relative viability ([1]; first compound 0.05 µM) | relative viability ([1]; first compound 0.1581 µM) | relative viability ([1]; first compound 0.5 µM) | relative viability (CUDC-101 + Foretinib; first compound 0.01 µM) | relative viability (CUDC-101 + Foretinib; first compound 0.03162 µM) | relative viability (CUDC-101 + Foretinib; first compound 0.1 µM) | relative viability (CUDC-101 + Foretinib; first compound 0.3162 µM) | relative viability (CUDC-101 + Foretinib; first compound 1 µM) | relative viability (CUDC-101 + Alpelisib; first compound 0.01 µM) | relative viability (CUDC-101 + Alpelisib; first compound 0.03162 µM) | relative viability (CUDC-101 + Alpelisib; first compound 0.1 µM) | relative viability (CUDC-101 + Alpelisib; first compound 0.3162 µM) | relative viability (CUDC-101 + Alpelisib; first compound 1 µM) | relative viability (NVP-TAE684 + Lapatinib; first compound 0.2 µM) | relative viability (NVP-TAE684 + Lapatinib; first compound 0.6325 µM) | relative viability (NVP-TAE684 + Lapatinib; first compound 2 µM)
NCI-H3122 | 1.01 | 1 | 1.06 | 1 | 1.03 | 1.02 | 0.973 | 0.908 | 0.943 | 0.769 | 0.666 | 0.83 | 0.808 | 0.875 | 0.969 | 0.369 | 0.213 | 0.18
NCI-H661 | 0.512 | 0.533 | 0.451 | 0.519 | 0.476 | 1.06 | 0.861 | 1.05 | 0.98 | 0.536 | 0.792 | 0.609 | 0.794 | 0.575 | 0.595 | 0.518 | 0.51 | 0.493
NCI-H596 | 0.921 | 1.11 | 1.07 | 1.23 | 0.937 | 0.862 | 0.902 | 0.787 | 0.752 | 0.729 | 0.463 | 0.395 | 0.481 | 0.465 | 0.512 | 0.915 | 0.949 | 0.893
PC-3 [JPC-3] | 0.439 | 0.441 | 0.423 | 0.484 | 0.429 | 1.07 | 1 | 0.882 | 0.539 | 0.294 | 1.04 | 0.999 | 0.775 | 0.683 | 0.307 | 0.472 | 0.446 | 0.387
NCI-H1993 | 0.652 | 0.779 | 0.824 | 0.747 | 0.809 | 0.862 | 0.791 | 0.839 | 0.734 | 0.612 | 0.742 | 0.751 | 0.766 | 0.671 | 0.639 |  | 0.77 | 0.7
NCI-H1355 | 1.18 | 1.03 | 1 | 1.14 | 0.931 | 1.08 | 1.01 | 1.03 | 1.07 | 0.821 | 0.873 | 0.738 | 1.02 | 0.807 | 0.566 | 1.18 | 0.855 | 0.636
A549 | 1.04 | 0.97 | 1.04 | 1.07 | 0.942 | 0.985 | 1 | 0.907 | 1.02 | 0.769 | 0.773 | 0.757 | 0.605 | 0.948 | 0.618 | 1.21 |  | 0.192
NCI-H23 |  | 1.16 | 1.12 | 1.22 | 1.14 | 1.06 | 1 | 1.04 | 1.06 | 0.949 | 0.775 | 0.592 | 0.727 | 0.652 | 0.718 | 1.15 | 1.05 | 0.512
CAL-12T | 0.782 |  |  | 0.675 | 0.674 | 1.11 | 1.06 | 1.18 | 1.16 | 1.16 | 1.38 | 0.984 | 1.42 | 1.11 | 1.21 | 0.666 | 0.471 | 0.305
ABC-1 | 1.08 | 1.26 | 1.21 | 1.02 | 1.21 | 1.04 | 0.797 | 1.07 | 0.704 | 0.519 | 1.15 | 1.07 | 0.819 | 0.609 | 0.572 | 1.06 | 1.33 | 0.976
NCI-H1755 | 0.874 | 1.08 | 1 | 1.17 | 0.78 | 0.899 | 0.905 | 0.99 | 1.01 | 0.903 | 0.96 | 0.944 | 0.956 | 0.972 | 0.844 | 0.996 | 1.06 | 0.891
SK-LU-1 |  | 0.856 | 0.934 | 1.18 | 0.832 | 0.885 | 0.793 | 0.891 | 0.771 | 0.662 | 1.18 | 1.05 | 1.11 | 0.812 | 0.505 | 0.98 | 0.873 | 0.486
NCI-H2126 | 0.75 | 0.718 | 0.721 | 0.873 | 0.685 | 1.25 | 0.971 | 1.08 | 1.26 | 1.01 | 0.771 | 0.706 | 0.7 | 0.74 | 0.531 | 0.755 | 0.719 | 0.55
NCI-H650 | 0.665 | 0.625 | 0.994 | 1.45 | 0.718 | 1.07 | 1.01 | 1.03 | 1.15 | 0.801 | 1.19 | 1.06 | 1.29 | 1.17 | 0.885 |  | 0.776 | 0.706
201T | 0.981 | 0.958 | 1.01 | 1.09 | 1.02 | 1.11 | 0.835 | 1.03 | 1.28 | 0.936 | 0.932 | 0.937 | 0.926 | 1.05 | 0.88 | 1.09 | 1.05 | 0.928
LU99A | 0.704 | 1.02 | 0.886 | 1.17 | 0.976 | 0.931 | 0.881 | 0.684 | 0.798 | 0.388 | 0.584 | 0.603 | 0.518 | 0.433 | 0.263 |  | 0.974 | 0.543
NCI-H647 |  | 1.34 | 1.11 | 1.3 | 0.546 | 1.16 | 1.11 | 1.14 | 1.21 | 0.877 | 1.48 | 1.14 | 1.33 | 1.18 | 0.794 | 1.34 | 1.02 | 0.686
LC-2-ad | 0.648 | 0.976 | 0.946 | 1 | 0.634 | 0.863 | 0.947 | 0.904 | 0.899 | 0.52 | 0.896 | 0.908 | 0.844 | 0.73 | 0.433 | 0.988 | 0.921 | 0.455
